Results taken from publication PMC11011327 (International Journal of Molecular Sciences, 2024).
Like-named read-outs stand apart in the source and are kept apart here. Residues, ends and D or L forms follow the SMILES beside them. No end group written: not given here.

Legend:
[1] = system: TNF-induced cytotoxicity, L929 cells; assay: Inhibition of cytotoxic activity of TNF on L929 cells; format: cell-based; settings: TNF 1 nM, peptide 10 nM, n = 5, TNF preincubated with TNFR1 peptide / cells preincubated with TNFL; for apoptotic cytotoxic activity of TNF in the presence of peptide: 3 h; for necroptotic cytotoxic activity of TNF in the presence of peptide: 20 h
Protocol: (§1) Next, we investigated how this interaction affects the cytotoxic activity of TNFR1 ligands. […] Cell apoptosis is a fast process of several hours. During necroptosis, cell death processes take place after a few dozen hours. Taking into account this ability of TNFR1 to participate in the induction of alternative cytotoxic pathways that develop at different time intervals, cytotoxic activity was determined after 3 h and after 20 h (Figure 4). […] It can be assumed that the inhibition of the cytotoxic effect of the ligands is associated with the competition of a 12-membered peptide with the cell surface receptor on for binding to the ligands.

[2] = system: Tag7–Hsp70-induced cytotoxicity, L929 cells; assay: Inhibition of cytotoxic activity of Tag7–Hsp70 complex on L929 cells; format: cell-based; settings: Tag7–Hsp70 1 nM, peptide 10 nM, n = 5, complex preincubated with TNFR1 peptide / cells preincubated with TNFL; for apoptotic cytotoxic activity of Tag7–Hsp70 complex in the presence of peptide: 3 h; for necroptotic cytotoxic activity of Tag7–Hsp70 complex in the presence of peptide: 20 h
Protocol: as §1

[3] = system: L929 cells
Protocol: (§2) The TNFR1 antibodies were added to the sum of TNFL and TNFS peptides prior to incubation (a). Cytotoxic activity of the sum of TNFL and TNFS peptides on L929 cells after 3 (b) and 20 (c) hours in the presence of caspase 3 and 8 inhibitors (5 μM) and necrostatin1 (5 μM) is shown. (d) Cytotoxic activity of the sum of TNFL and TNFs peptides on L929 cells after 20 h of incubation in the presence of calpains inhibitors (10 μM), cathepsins inhibitors (10 μM) and antioxidant (1 μM). n = 5 for each point, (* p-value < 0.05).
(§3) L929 cells were cultured in DMEM with 2 mm L-glutamine and 10% FCS (Invitrogen, Carlsbad, CA, USA). This cell line was obtained from the cell line collection of the N. N. Blokhin National Medical Research Center of Oncology of the Ministry of Health of Russia.
(§4) For cytotoxicity tests, target cells were cultured in 96-well plates (3 × 10^4 cells per well), and cytotoxic complexes were added (1 nM). Cytotoxicity was measured after 20 h of incubation by Cytotox 96 analysis kit (Promega, Madison, WI, USA) in accordance with the manufacturer’s protocol. […]

[4] = biological target: T1, Tag7 (Homo sapiens, UniProt O75594); assay: Microscale thermophoresis, binding to fluorescent-labeled Tag7; settings: ratio to previously shown Kd of Tag7–sTNFR1 (42.2)
T1 construct: His tag (inferred from the pQE-31 vector only); made in house; host or cells: E. coli M15 (pREP4)
T1 sequence (O75594 22-196): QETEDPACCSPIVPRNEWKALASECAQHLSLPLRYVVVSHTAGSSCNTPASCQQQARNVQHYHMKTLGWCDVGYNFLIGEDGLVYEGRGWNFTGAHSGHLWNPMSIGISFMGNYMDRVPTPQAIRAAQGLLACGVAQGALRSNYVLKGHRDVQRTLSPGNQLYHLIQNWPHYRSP
Text: The calculated Kd indicates a high affinity among the studied complexes (Table 1).
Graphs are represented as Fnorm [‰] against ligand concentration. Data represent three independent experiments and were fitted to a Kd binding model assuming a 1:1 binding stoichiometry.
Hsp70 and TNF-α were purified with Ni-NTA Agarose (Thermo Fisher Scientific, Waltham, MA, USA) in accordance with the manufacturer’s instructions.
The samples were transferred to glass capillaries (Monolith NT Capillaries) and analyzed by microscale thermophoresis on a Nano-Temperature Monolith NT 115 device (30% IR laser power). The signal quality was monitored using a NanoTemper Monolith device to detect possible autofluorescence of the ligand, aggregation or changes in the rate of photobleaching. The experiments were carried out in at least three repetitions and processed using affinity analysis software (MO Control v.1.6.1, NanoTemper Technologies GmbH, München, Germany).

[5] = system: tumor cells / cancer cells; settings: ref [33]; cited from earlier work
Text: The amino acid sequence of Tag7 seemingly lacks a peptide fragment interacting with the second site of the receptor.

[6] = system: tumor; settings: ref [33]; cited from earlier work
Text: Modifications of the TNF molecule are used to solve it.

[7] = biological target: sTNFR1; settings: read-out: Kd value for the Tag7–sTNFR1 complex; "Previously, we showed"; cited from earlier work
[8] = system: L929 cells; assay: Cytotoxic activity of TNF peptides on L929 cells; settings: 20 h, n = 5, Cytotox 96 kit
Protocol: as §2, §3, §4

Compound: NPQAEGQLQWLNRRAN [TNFL peptide]
- apoptotic cytotoxic activity of TNF in the presence of peptide [1]: Both apoptosis (3 h) and necroptosis (20 h) were inhibited
- necroptotic cytotoxic activity of TNF in the presence of peptide [1]: Both apoptosis (3 h) and necroptosis (20 h) were inhibited
- apoptotic cytotoxic activity of Tag7–Hsp70 complex in the presence of peptide [2]: Both apoptosis (3 h) and necroptosis (20 h) were inhibited
- necroptotic cytotoxic activity of Tag7–Hsp70 complex in the presence of peptide [2]: Both apoptosis (3 h) and necroptosis (20 h) were inhibited
- cytotoxic activity [3]: no cytotoxic effect

Compound: CC(C)C[C@H](NC(=O)[C@H](CS)NC(=O)[C@H](Cc1c[nH]cn1)NC(=O)[C@H](CCCNC(=N)N)NC(=O)[C@H](CC(C)C)NC(=O)[C@H](Cc1c[nH]cn1)NC(=O)[C@@H](N)CC(N)=O)C(=O)N[C@@H](CO)C(=O)N[C@@H](CS)C(=O)N[C@@H](CO)C(=O)N[C@@H](CCCCN)C(=O)N[C@@H](CS)C(=O)O [TNFR1 peptide] (H-NHLRHCLSCSKC-OH)
- Kd of Tag7–TNFR1 peptide complex compared with Kd of Tag7–sTNFR1 complex [4]: approximately 10 times lower
- apoptotic cytotoxic activity of TNF in the presence of peptide [1]: completely lose both apoptotic and necroptotic activity
- necroptotic cytotoxic activity of TNF in the presence of peptide [1]: completely lose both apoptotic and necroptotic activity
- apoptotic cytotoxic activity of Tag7–Hsp70 complex in the presence of peptide [2]: completely lose both apoptotic and necroptotic activity
- necroptotic cytotoxic activity of Tag7–Hsp70 complex in the presence of peptide [2]: completely lose both apoptotic and necroptotic activity

Compound: TNF peptide (aa. 150–170): TNF peptide (aa. 150–170), capable of killing tumor cells and inhibiting tumor growth (VLLTHTISRIAVSYQTKVNLL; UniProt P01375 150-170, looked up, fragment)
- killing of tumor cells [5]: capable of killing tumor cells
- inhibition of tumor growth / metastasis [6]: inhibiting tumor growth

Compound: Tag7: recombinant human Tag7, innate immunity protein, TNFR1 ligand
- Kd [7]: 42.2 nM

Compound: YVLLTH [TNFS peptide]
- apoptotic cytotoxic activity of TNF in the presence of peptide [1]: does not inhibit apoptosis nor necroptosis
- necroptotic cytotoxic activity of TNF in the presence of peptide [1]: does not inhibit apoptosis nor necroptosis
- apoptotic cytotoxic activity of Tag7–Hsp70 complex in the presence of peptide [2]: does not inhibit apoptosis nor necroptosis
- necroptotic cytotoxic activity of Tag7–Hsp70 complex in the presence of peptide [2]: does not inhibit apoptosis nor necroptosis
- cytotoxic activity [8]: no cytotoxic effect
